{"source": "patent US20050065086A1", "about": "“Use of peptide-drug conjugation to reduce inter-subject variability of drug serum levels” (New River Pharmaceuticals Inc., priority 2002, published 2005)", "key": {"[1]": {"tested_on": "Caco-2 Cells", "details": "unlike rapid and efficient in vivo absorption; cited from earlier work"}, "[2]": {"assay": "physchem", "format": "physicochemical", "details": "pH 7.4, aqueous buffer", "from_the_text": "The enhanced absorption may be explained by the use of an additional transport mechanism, such as one of the peptide transporters."}, "[3]": {"tested_on": "Caco-2 Cells", "details": "cited from earlier work"}, "[4]": {"details": "after oral administration (Gidal and coworkers); cited from earlier work"}}, "data": [{"smiles": "N[C@@H](Cc1ccc(O)c(O)c1)C(=O)O", "note": "[L-dopa]", "values": [{"measurement": "transport by Caco-2 cells", "setting": "[1]", "result": "do not transport L-dopa very well"}]}, {"smiles": "N[C@@H](Cc1cc(I)c(Oc2cc(I)c(O)c(I)c2)c(I)c1)C(=O)O", "note": "[T4, sodium, levothyroxine sodium]", "values": [{"measurement": "solubility", "setting": "[2]", "result": 6.9, "unit": "µg/mL"}]}, {"smiles": "NS(=O)(=O)c1cc2c(cc1Cl)N=CNS2(=O)=O", "note": "[chlorothiazide]", "values": [{"measurement": "permeability", "setting": "[3]; Caco-2", "result": "low"}, {"measurement": "absorption in humans", "setting": "[3]", "result": "low"}]}, {"smiles": "NCC1(CC(=O)O)CCCCC1", "note": "[gabapentin]", "values": [{"measurement": "intersubject CV for the AUC", "setting": "[4]", "result": 22.5, "unit": "%"}]}]}
